pIC50: −log10 of the molar value. Like-named read-outs stand apart in the source and are kept apart here.
What was measured:
DU145 = test: WST-1 proliferation assay, DU145 cells (Example 16); format: cell-based, human
Description: (§1) The human prostate cancer cell lines DU145, LNCaP (from the American Type culture Collection, ATCC) and long-term interleukin-6 (IL-6) stimulated LNCaP cells (LNCaP-IL6 cells) (Hobisch, Ramoner et al. 2001) were used. The cells were cultured in RPMI 1640 medium supplemented with 10% FBS and 1% penicillin-streptomycin. All cells were incubated at 37° C. in a humidified atmosphere of […] and 5% CO2.
(§2) WST-1 proliferation assay was performed to study the effects of the test items on the proliferation and viability of cultured prostate cancer cells. LNCaP and DU145 cells were cultured in 96-well plates at the density of 2 000 cells/well in 200 μl of medium. Cells were allowed to set for 24 h. The cells were treated with 0, 2.5, 5 or 10 μM of the specific substance for 24 h and 48 h. Samples were made in triplicate. 20 μl WST-1 solution (Roche Applied Science, Mannheim, Germany) was added per well and incubated at 37° C. for 4 h. The absorbance of each well was measured using a scanning multiwell spectrophotometer, ELISA reader at a wavelength of 450 nm and reference wavelength of 690 nm. The results are presented as percent of untreated control cells or the absorbance value.

IL-6/STAT3 signaling = settings: background statement; cited from earlier work
[1] = tested on: STAT-3 transcription factor; test: STAT3 inhibition, luciferase reporter (4xM67 pTATA TK-Luc) in HeLa cells stimulated with γ-Interferon; format: cell-based; settings: γ-Interferon 8 h, luciferase activity, read-out: Anti STAT3 IC50
Description: HeLa cells (4×10^4/ml) were transiently transfected with a luciferase reporter plasmid (4×M67 pTATA TK-Luc) driven by artificial promoter containing 4 repeated M67 binding sites in tandem for the STAT-3 transcription factor. The transfections were performed for 24 h using Roti-Fect reagent (Carl Roth, Karlsruhe, Germany) according to the manufacturer's recommendations. After incubation with different concentrations of the extracts for 30 min the transfected cells were stimulated for 8 h with γ-Interferon. Then, the cells were lysed in 25 mM Tris-phosphate pH 7.8, 8 mM MgCl2, 1 mM DTT, 1% Triton X-100, and 7% glycerol. Luciferase activity was measured as described for 5.1 cells.
γ-Interferon induces an average of 5-6 fold induction of the luciferase activity compared to non stimulated cells and this represent the index of transactivation that is represented in our experiment as the maximum levels of γ-Interferon-induced STAT-3 activation (100%). Results below represent the IC50 for each compound in this assay. The IC50 means the concentration of each compound that reduces luciferase activity by 50% and it was calculated by GraphPad software.

NF-κB = test: NF-κB-dependent transcriptional activity, Jurkat-LTR-Luc (Jurkat 5.1) cells stimulated with TNF-α; format: cell-based; settings: TNF-α (2 ng/ml) 6 h, luciferase activity, read-out: IC50 anti-NF-κB
Description: The potency of (−)-Galiellalactone and compound examples of the invention in inhibiting NF-κB-dependent transcriptional activity was assayed in a Jurkat-LTR-Luc cell line. This cellular model have been widely used for the screening of natural and synthetic NF-κB inhibitors (Appendino et al, J Nat Prod. 2007, 70(4), 608-612; J Nat Prod. 2006, 69(7), 1101-1104; Marquez et al, Antiviral Res. 2005, 66(2-3), 137-145) Jurkat 5.1 cells were preincubated for 30 min with increasing concentrations of the compounds dissolved in DMSO followed by stimulation with TNF-α (2 ng/ml) for 6 h. Cells were washed twice in PBS and lysed in 25 mM Tris-phosphate, pH 7.8, 8 mM MgCl2, 1 mM DTT, 1% Triton X-100, and 7% glycerol for 15 min at room temperature. Then the lysates were spun down and the supernatant was used to measure luciferase activity using an Autolumat LB 9510 (Berthold Technologies). Protein concentration was determined by the Bradford method (Bio-Rad, Richmond, Calif.). Results below represent the 1050 for each compound in this assay.

LNCaP-IL6 cells = test: WST-1 proliferation assay, LNCaP-IL6 cells; format: cell-based, human
Description: as §1, §2

pIC50 [1]	pIC50 (NF-κB)	pIC50 ([1]; Homo sapiens)	pIC50 (NF-κB; Homo sapiens)	SMILES	% Proliferation (vs control) 24 h DU145 (DU145; 2.5 uM)	% Proliferation (vs control) 48 h Du145 (DU145; 2.5 uM)	% Proliferation (vs control) 24 h DU145 (DU145; 5 uM)	% Proliferation (vs control) 48 h Du145 (DU145; 5 uM)	% Proliferation (vs control) 24 h DU145 (DU145; 10 uM)	% Proliferation (vs control) 48 h Du145 (DU145; 10 uM)	inhibition of IL-6/STAT3 signaling (IL-6/STAT3 signaling)	% Proliferation (vs control) 24 h LNCaP-IL6 (LNCaP-IL6 cells; 2.5 uM)	% Proliferation (vs control) 48 h LNCaP-IL6 (LNCaP-IL6 cells; 2.5 uM)	% Proliferation (vs control) 24 h LNCaP-IL6 (LNCaP-IL6 cells; 5 uM)	% Proliferation (vs control) 48 h LNCaP-IL6 (LNCaP-IL6 cells; 5 uM)	% Proliferation (vs control) 24 h LNCaP-IL6 (LNCaP-IL6 cells; 10 uM)	% Proliferation (vs control) 48 h LNCaP-IL6 (LNCaP-IL6 cells; 10 uM)
5.11	5.26			C[C@@H]1C=C2C(=O)O[C@@H]3CC[C@H](C1)C23O (single isomer, unassigned; (-)) [(−)-Galiellalactone, reference compound]	84.24%	76.36%	63.19%	38.51%	48.44%	22.24%	submicromolar	90.91%	96.78%	68.76%	68.76%	77.11%	23.22%
		5.68	5.58	C[C@H]1C=C2C(=O)OC3C(C)(C)C[C@H](C1)[C@]23O (stereo partly drawn) [Example 1, 2a^1-hydroxy-4,7,7-trimethyl-4,5,5a,6,7,7a-hexahydroindeno[1,7-bc]furan-2(2a^1H)-one]	80.19%	67.45%	68.82%	35.62%	54.07%	22.77%		65.41%	52.42%	68.95%	26.28%	69.23%	16.19%
		5.93	6.48	C[C@H]1C=C2C(=O)OC3[C@H](c4ccccc4)C[C@H](C1)[C@]23O (stereo partly drawn) [Example 2, 2a^1-hydroxy-4-methyl-7-phenyl-4,5,5a,6,7,7a-hexahydroindeno[1,7-bc]furan-2(2a^1H)-one]	90.64%	68.04%	68.55%	34.07%	63.86%	30.26%		81.79%	79.56%	81.21%	57.14%	70.45%	20.19%
		5.54	5.90	C[C@H]1C=C2C(=O)OC3[C@H](Cc4ccccc4)C[C@H](C1)[C@]23O (stereo partly drawn) [Example 3, 7-benzyl-2a^1-hydroxy-4-methyl-4,5,5a,6,7,7a-hexahydroindeno[1,7-bc]furan-2(2a^1H)-one]	56.33%	31.10%	52.11%	18.38%	44.48%	14.45%		57.10%	27.82%	59.00%	18.15%	53.01%	12.49%
